Test results from patent publication US10793522B2, “Sulfonamides as inhibitors of the uptake of extracellular citrate” (Boehringer Ingelheim International GmbH, priority 2016, dated 2020).

Biological target: hSLC13A5 (Homo sapiens, UniProt Q86YT5)
Assay: HepG2/14C-citrate uptake assay
Format: cell-based
Parameters: HepG2 cells endogenously express hSLC13A5 transporter which is responsible for the uptake of citrate into these cells; endogenous in cells; host or cells: HepG2
Conditions: HepG2 cells endogenously expressing hSLC13A5; Cytostar-T; 14C-citrate ~1.8 μM; incubation over night
From the text: (4) HepG2/^14C-Citrate Uptake Assay
HepG2 cells endogenously expressing hSLC13A5 were obtained from the Wistar Institute (Knowles et al., Science 1980, 209, 497-499).
HepG2 cells endogenously express hSLC13A5 transporter which is responsible for the uptake of citrate into these cells. […] The uptake of ^14C-citrate into HepG2 cells is monitored using the Cytostar-T assay. This assay format is based on the imported radioactive citrate brought into proximity with the scintillant contained within the base of the plate by virtue of the biological processes within the cells. The radioactive decay is converted to a light signal based on the integration of the scintillation matrix into the assay plate.
Method: ^14C-Citrate Uptake Assay
Starting from 10 mM stock solutions in 100% DMSO, compounds are diluted in pure DMSO using the appropriate dilution steps. Prior to the uptake assay, 400 μL assay medium+4.8 μL compound solution (or pure DMSO for non-inhibited control wells) are mixed (final DMSO concentration in the assay: 1% (v/v)) ^14C-citrate working solution (volumes required per 96-well):
The HepG2 cells are cultivated in cell culture medium (EMEM+10% fetal calf serum+1×NEAA and 10 mM L-Glutamin) For the assay, the medium of the confluent cultures is discarded and the cells are washed with DPBS w/o Mg^2+ w/o Ca^2+. The cells are detached by the addition of 1.0 mL 2× Trypsin in DPBS w/o Mg^2+ w/o Ca^2+ with 7.5 mM EDTA per 75 cm^2 culture flask for up to 3 minutes at 37° C. and resuspended in 10 mL cell culture medium. Following cell counting, 100,000 cells/well are seeded in a volume of 200 μL into Cytostar-T Scintillating 96-well microplates. After overnight incubation in a humid cell culture incubator at 37° C., 5% CO2, the cell culture medium is carefully aspirated and the cells are incubated with 200 μL prewarmed (37° C.) assay medium (50% DMEM+50% Ham's F-12+15 mM HEPES (pH 7.4) (medium contains 15.5 m M D(+)-glucose) per well for at least 1 h prior to the experiment.
Immediately prior to uptake assay, the assay medium is carefully removed and 100 μL test compound dilution is added to each well (n=3).
Following a 20 min incubation at 37° C. in the cell culture incubator, 20 μL of ^14C-citrate working solution is added to each well (final volume per well: 120 μL; final ^14C-citrate concentration ˜1.8 μM/well)).
After incubation over night at 37° C. in the cell culture incubator, the plates are sealed on the top using a transparent plastic foil and on the bottom using a white plastic foil. Following the sealing, the plate is placed into the TopCount NXT HTS and the signal is recorded.
The IC50 values of the compounds are calculated in IDBS XLfit by sigmoidal dose-response (variable slope).

hSLC13A5, sequence (Q86YT5 whole entry): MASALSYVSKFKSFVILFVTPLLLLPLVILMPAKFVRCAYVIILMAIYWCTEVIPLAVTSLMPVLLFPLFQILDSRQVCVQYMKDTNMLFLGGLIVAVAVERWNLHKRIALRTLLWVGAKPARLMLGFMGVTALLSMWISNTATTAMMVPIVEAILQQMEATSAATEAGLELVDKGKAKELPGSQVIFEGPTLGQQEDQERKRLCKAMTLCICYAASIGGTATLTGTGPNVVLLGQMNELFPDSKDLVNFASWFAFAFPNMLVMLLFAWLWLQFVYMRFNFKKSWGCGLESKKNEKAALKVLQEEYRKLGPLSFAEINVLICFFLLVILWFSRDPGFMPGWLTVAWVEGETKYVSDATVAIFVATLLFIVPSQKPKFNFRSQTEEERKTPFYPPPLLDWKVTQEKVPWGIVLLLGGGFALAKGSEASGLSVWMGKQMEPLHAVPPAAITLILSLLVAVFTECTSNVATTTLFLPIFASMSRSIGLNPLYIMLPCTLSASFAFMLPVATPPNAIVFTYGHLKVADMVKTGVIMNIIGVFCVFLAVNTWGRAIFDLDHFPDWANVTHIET

Structure (SMILES)	IC50 [µM]
O=C(NCc1ccccc1F)C1CCN(S(=O)(=O)c2cc(Cl)cc(Cl)c2)CC1 [(I-2)]	0.035
O=C(NCc1ccc(Cl)cc1)C1CCN(S(=O)(=O)c2cc(Cl)cc(Cl)c2)CC1 [(I-5)]	0.022
O=C(NCc1ccc(F)cc1)C1CCN(S(=O)(=O)c2cc(Cl)cc(Cl)c2)CC1 [(I-10)]	0.024
O=C(NCc1ccccn1)C1CCN(S(=O)(=O)c2cc(Cl)cc(Cl)c2)CC1 [(I-11)]	0.455
Cc1ccc(CNC(=O)C2CCN(S(=O)(=O)c3cc(Cl)cc(Cl)c3)CC2)nc1 [(I-15)]	0.152
O=C(NCc1ccc(F)cn1)C1CCN(S(=O)(=O)c2cc(Cl)cc(Cl)c2)CC1 [(I-20)]	0.233
Cc1cnc(CNC(=O)C2CCN(S(=O)(=O)c3cc(Cl)cc(Cl)c3)CC2)s1 [(I-27)]	0.113
CCOc1cc(Cl)cc(S(=O)(=O)N2CCC(C(=O)NCc3nccs3)CC2)c1 [(I-49)]	0.1
Cc1cc(Br)cc(S(=O)(=O)N2CCC(C(=O)NCc3ccccn3)CC2)c1 [(I-61)]	0.149
N#Cc1ccc(CNC(=O)C2CCN(S(=O)(=O)c3cc(Cl)cc(Cl)c3)CC2)cc1 [Example (I-1)]	0.074
